# Read-outs that look alike come from different tables or passages of the source.
# Legend:
# [1] = tested on: Key Grass and Sedge Weeds as well as Grass Crops; assay: Post-Emergent Test II: postemergent herbicidal activity, visual rating after 14 d (Table 8); format: in vivo; conditions: post-emergence, 336 h; for pest or weed control at 35 g/ha: 35 g ai/ha; for pest or weed control at 70 g/ha: 70 g ai/ha; for pest or weed control at 140 g/ha: 140 g ai/ha
# Method in brief: (§1)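 Track-sprayed young seedlings (first/second true leaf) at 187 L/ha across a 2-fold rate series from the high rate down to 1/16×. Kept in greenhouse at 23-29° C day, subirrigated. Injury rated by eye after 14 d, 0 = no injury, 100 = complete kill.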
# [2] = tested on: Key Broadleaf Weed and Crop Species; assay: Post-Emergent Test II: postemergent herbicidal activity, visual rating after 14 d (Table 7); format: in vivo; conditions: post-emergence, 336 h; for pest or weed control at 35 g/ha: 35 g ai/ha; for pest or weed control at 70 g/ha: 70 g ai/ha; for pest or weed control at 140 g/ha: 140 g ai/ha
# Method in brief: as §1
# [3] = barnyardgrass (Echinochloa crus-galli), read-out: Visual Growth Reduction (%) 14 Days After Application ECHCG
# [4] = giant foxtail (Setaria faberi), read-out: Visual Growth Reduction (%) 14 Days After Application SETFA
# [5] = maize, corn (Zea mays), read-out: Visual Growth Reduction (%) 14 Days After Application ZEAMX
# [6] = rice (Oryza sativa), read-out: Visual Growth Reduction (%) 14 Days After Application ORYSA
# [7] = wheat, spring (Triticum aestivum), read-out: Visual Growth Reduction (%) 14 Days After Application TRZAS
# [8] = yellow nutsedge (Cyperus esculentus), read-out: Visual Growth Reduction (%) 14 Days After Application CYPES
# [9] = lambsquarters (Chenopodium album), read-out: Visual Growth Reduction (%) 14 Days After Application CHEAL
# [10] = oilseed rape, canola (Brassica napus), read-out: Visual Growth Reduction (%) 14 Days After Application BRSNN
# [11] = redroot pigweed (Amaranthus retroflexus), read-out: Visual Growth Reduction (%) 14 Days After Application AMARE
# [12] = sunflower (Helianthus annuus), read-out: Visual Growth Reduction (%) 14 Days After Application HELAN
# [13] = velvetleaf (Abutilon theophrasti), read-out: Visual Growth Reduction (%) 14 Days After Application ABUTH
# [14] = wild poinsettia (Euphorbia heterophylla), read-out: Visual Growth Reduction (%) 14 Days After Application EPHHL
Structure (SMILES),"pest or weed control at 35 g/ha [1, 3] [%]","pest or weed control at 70 g/ha [1, 3] [%]","pest or weed control at 140 g/ha [1, 3] [%]","pest or weed control at 35 g/ha [1, 4] [%]","pest or weed control at 70 g/ha [1, 4] [%]","pest or weed control at 140 g/ha [1, 4] [%]","pest or weed control at 35 g/ha [1, 5] [%]","pest or weed control at 70 g/ha [1, 5] [%]","pest or weed control at 140 g/ha [1, 5] [%]","pest or weed control at 35 g/ha [1, 6] [%]","pest or weed control at 70 g/ha [1, 6] [%]","pest or weed control at 140 g/ha [1, 6] [%]","pest or weed control at 35 g/ha [1, 7] [%]","pest or weed control at 70 g/ha [1, 7] [%]","pest or weed control at 140 g/ha [1, 7] [%]","pest or weed control at 35 g/ha [1, 8] [%]","pest or weed control at 70 g/ha [1, 8] [%]","pest or weed control at 140 g/ha [1, 8] [%]","pest or weed control at 35 g/ha [2, 9] [%]","pest or weed control at 70 g/ha [2, 9] [%]",further results
Nc1c(F)c(-c2cc3c(cc2F)OC(F)(F)O3)nc(C(=O)O)c1Cl [Compound 13],75 to 84,95 to 100,85 to 94,75 to 84,75 to 84,85 to 94,60 to 74,60 to 74,75 to 84,0 to 29,0 to 29,0 to 29,45 to 59,60 to 74,60 to 74,45 to 59,75 to 84,95 to 100,60 to 74,85 to 94,"pest or weed control at 140 g/ha [2, 9]: 85 to 94%; pest or weed control at 35 g/ha [2, 10]: 0 to 29%; pest or weed control at 70 g/ha [2, 10]: 30 to 44%; pest or weed control at 140 g/ha [2, 10]: 45 to 59%; pest or weed control at 35 g/ha [2, 11]: 0 to 29%; pest or weed control at 70 g/ha [2, 11]: 0 to 29%; pest or weed control at 140 g/ha [2, 11]: 0 to 29%; pest or weed control at 35 g/ha [2, 12]: 85 to 94%; pest or weed control at 70 g/ha [2, 12]: 85 to 94%; pest or weed control at 140 g/ha [2, 12]: 85 to 94%; pest or weed control at 35 g/ha [2, 13]: 60 to 74%; pest or weed control at 70 g/ha [2, 13]: 75 to 84%; pest or weed control at 140 g/ha [2, 13]: 75 to 84%; pest or weed control at 35 g/ha [2, 14]: 45 to 59%; pest or weed control at 70 g/ha [2, 14]: 75 to 84%; pest or weed control at 140 g/ha [2, 14]: 95 to 100%"
COC(=O)c1nc(-c2ccc3c(c2)OC(F)(F)O3)c(C)c(N)c1Cl [Compound 49],0 to 29,0 to 29,0 to 29,0 to 29,0 to 29,0 to 29,30 to 44,60 to 74,60 to 74,0 to 29,0 to 29,0 to 29,0 to 29,30 to 44,30 to 44,0 to 29,0 to 29,0 to 29,0 to 29,30 to 44,"pest or weed control at 140 g/ha [2, 9]: 85 to 94%; pest or weed control at 35 g/ha [2, 10]: 0 to 29%; pest or weed control at 70 g/ha [2, 10]: 0 to 29%; pest or weed control at 140 g/ha [2, 10]: 0 to 29%; pest or weed control at 35 g/ha [2, 11]: 0 to 29%; pest or weed control at 70 g/ha [2, 11]: 0 to 29%; pest or weed control at 140 g/ha [2, 11]: 0 to 29%; pest or weed control at 35 g/ha [2, 12]: 85 to 94%; pest or weed control at 70 g/ha [2, 12]: 85 to 94%; pest or weed control at 140 g/ha [2, 12]: 95 to 100%; pest or weed control at 35 g/ha [2, 13]: 0 to 29%; pest or weed control at 70 g/ha [2, 13]: 0 to 29%; pest or weed control at 140 g/ha [2, 13]: 30 to 44%; pest or weed control at 35 g/ha [2, 14]: 0 to 29%; pest or weed control at 70 g/ha [2, 14]: 0 to 29%; pest or weed control at 140 g/ha [2, 14]: 0 to 29%"

# Reference: US9149038B2, “4-amino-6-(heterocyclic)picolinates and 6-amino-2-(heterocyclic)pyrimidine-4-carboxylates and their use as herbicides” (Dow AgroSciences LLC, priority 2013, dated 2015)
